Source: publication PMC7574915 (Science Translational Medicine, 2020)
Where “and” joins values, the source holds several entries; their conditions need not be identical. Equal entries are not always repeated. Where two headings read alike, the source gives them in different places.

Key:
[1] = tested on: FIPV; assay: microbe, parasite or virus in culture; assay type: cell-based, feline infectious peritonitis virus; conditions: Alphacoronavirus 1, CRFK, 24 h, read-out: EC50 in cell culture, FIPV
[2] = in vitro
[3] = molecular target: 3CLpro of SARS-CoV (Severe acute respiratory syndrome coronavirus, UniProt P0C6X7); assay: biochemical
[4] = tested on: MHV; assay: microbe, parasite or virus in culture; assay type: cell-based, mouse hepatitis virus; conditions: Murine coronavirus, L929, 24 h, read-out: EC50 in cell culture, MHV
[5] = molecular target: 3CLpro of MERS-CoV (Middle East respiratory syndrome-related coronavirus, UniProt K9N7C7); assay: biochemical
3CLpro of MERS-CoV, sequence (K9N7C7 3248-3553 limits assumed): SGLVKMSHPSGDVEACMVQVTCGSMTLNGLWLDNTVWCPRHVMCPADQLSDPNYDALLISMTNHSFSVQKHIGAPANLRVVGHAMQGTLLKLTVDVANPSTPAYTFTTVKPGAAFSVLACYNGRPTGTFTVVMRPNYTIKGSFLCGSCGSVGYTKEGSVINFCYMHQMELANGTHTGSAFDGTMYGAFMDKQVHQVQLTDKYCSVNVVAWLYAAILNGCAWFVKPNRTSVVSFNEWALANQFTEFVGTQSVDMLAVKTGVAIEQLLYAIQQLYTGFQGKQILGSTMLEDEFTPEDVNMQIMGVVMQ

[6] = tested on: MERS-CoV; assay: microbe, parasite or virus in culture; assay type: cell-based
[7] = molecular target: T1, 3CLpro of SARS-CoV-2 (Severe acute respiratory syndrome coronavirus 2, UniProt P0DTD1); assay: biochemical
T1 construct: His6 (N); made in house; host or cells: E. coli (inferred from the pET-28a(+) vector)

[8] = tested on: SARS-CoV-2; assay: microbe, parasite or virus in culture; assay type: cell-based; conditions: Severe acute respiratory syndrome coronavirus 2, Vero C1008, read-out: EC50 in cell culture, SARS-CoV-2
[9] = tested on: MERSMA-CoV; conditions: mouse, in vivo, 50 mg/kg/day
[10] = tested on: SARS-CoV-2; assay: microbe, parasite or virus in culture; assay type: cell-based
[11] = tested on: MERSMA-CoV; conditions: mouse, in vivo
[12] = tested on: feline infectious peritonitis (FIP); conditions: in vivo; cited from earlier work
[13] = tested on: FIPV; conditions: read-out: EC50 in cell culture, FIPV; cited from earlier work
[14] = Middle East respiratory syndrome-related coronavirus, Huh-7, read-out: EC50 in cell culture, MERS-CoV

Compound	EC50 [1] [nM]	CC50 [2] [nM]	IC50 [3] [nM]	EC50 [4] [nM]	IC50 [5] [nM]	EC50 in cell culture, MERS-CoV [6]	EC50 [6, 14] [nM]	IC50 [7] [nM]	further results
CC(C)C[C@H](NC(=O)OC1CCC(F)(F)CC1)C(=O)N[C@@H](C[C@@H]1CCNC1=O)C(O)S(=O)(=O)O (stereo partly shown) [Compound 7h]	120 ± 60	> 100000	2200 ± 100	110 ± 80	80 ± 10	submicromolar	210 ± 100	410 ± 100	
CC(C)C[C@H](NC(=O)OC1CCCCC1)C(=O)N[C@@H](C[C@@H]1CCNC1=O)C(O)S(=O)(=O)O (stereo partly shown) [Compound 7a]	70 ± 20	> 100000	3800 ± 400	80 ± 30	150 ± 10	submicromolar	80 ± 100	650 ± 60	
CCCCC1CCC(OC(=O)N[C@@H](CC(C)C)C(=O)N[C@@H](C[C@@H]2CCNC2=O)C(O)S(=O)(=O)O)CC1 (stereo partly shown) [Compound 7e]	170 ± 20	59100 ± 3500	1000 ± 100	130 ± 20	130 ± 60	submicromolar	530 ± 200	200 ± 60	
CC(C)C[C@H](NC(=O)OC1CCCCC1)C(=O)N[C@H](C=O)C[C@@H]1CCNC1=O [Compound 6a]	90 ± 20	> 100000	3900 ± 300	120 ± 50	350 ± 100			820 ± 100	
CCCC1CCC(OC(=O)N[C@@H](CC(C)C)C(=O)N[C@H](C=O)C[C@@H]2CCNC2=O)CC1 (stereo partly shown) [Compound 6c]	120 ± 10	> 100000		130 ± 50		submicromolar	50 ± 60	280 ± 50	EC50 [8]: 250 ± 150 nM
CC(C)C[C@H](NC(=O)OC1CCC(F)(F)CC1)C(=O)N[C@H](C=O)C[C@@H]1CCNC1=O [Compound 6h]	120 ± 50	> 100000	2300 ± 300	80 ± 50	70 ± 10			430 ± 100	body weight ([9]; ip): continued to lose body weight until 6 dpi but then started to gain weight from 9 dpi; survival at the end of the study (15 dpi) ([9]; ip): 40%; EC50 [8]: 900 ± 800 nM
CC(C)C[C@H](NC(=O)OCC1CCC(F)(F)CC1)C(=O)N[C@H](C=O)C[C@@H]1CCNC1=O [Compound 6j]	80 ± 20	> 100000				submicromolar	40 ± 20		inhibition of viral replication [10]: about 10 fold; inhibition of virus replication [10]: 100 fold; Virus titers (log10) ([10]; 48 hours): 6.35 ± 0.02 log10 and 6.10 ± 0.09 log10 and 6.30 ± 0.1 log10; Edema in the lungs (score 0 to 4) [11]: reduced compared to control mice; Lung virus titers [11]: decreased; Scores for hyaline membrane formation (0 to 4) [11]: reduced in 6j-treated mice but were not statistically different from control mice; lung lesions (histopathology) [11]: few observed lesions; body weight [9]: regained the lost weight by 15 dpi; body weight ([9]; ip): rapidly recovered from body weight loss starting at 3 dpi; survival at the end of the study (15 dpi) ([9]; ip): all mice treated with compound 6j were alive
CC(C)C[C@H](NC(=O)OCc1ccccc1)C(=O)N[C@@H](C[C@@H]1CCNC1=O)C(O)S(=O)(=O)O (stereo partly shown) [GC376, reference compound]		> 100000					~1000		progression of FIP [12]: reversed the progression of FIP and resulted in clinical remission; EC50 [13]: 40 nM; EC50 ([6]; read-out: EC50 in cell culture, MERS-CoV): 900 ± 200 nM
CC(C)C[C@H](NC(=O)OCC1CCC(F)(F)CC1)C(=O)N[C@@H](C[C@@H]1CCNC1=O)C(O)S(=O)(=O)O (stereo partly shown) [Compound 7j]	70 ± 10	> 100000	1100 ± 100	160 ± 50	100 ± 10			450 ± 100	
CCCC1CCC(OC(=O)N[C@@H](CC(C)C)C(=O)N[C@@H](C[C@@H]2CCNC2=O)C(O)S(=O)(=O)O)CC1 (stereo partly shown) [Compound 7c]	170 ± 30	> 100000		160 ± 80	100 ± 40			230 ± 50	
CCCCC1CCC(OC(=O)N[C@@H](CC(C)C)C(=O)N[C@H](C=O)C[C@@H]2CCNC2=O)CC1 (stereo partly shown) [Compound 6e]	220 ± 30	63300 ± 2300	900 ± 100	120 ± 40	150 ± 20			170 ± 60	inhibition of viral replication [10]: about 10 fold; inhibition at 0.5 µM ([10]; Severe acute respiratory syndrome coronavirus 2, Epithelial cell, read-out: inhibition of virus replication): ~50%; EC50 [8]: 150 ± 140 nM
